Values joined by “and” are separate entries in the source; they are usually repeats but may differ in a detail not shown here. Equal entries are not always repeated.
Tests used:
[1] = molecular target: T1, glucocorticoid receptor (GR) (Homo sapiens, UniProt P04150); settings: cited from earlier work
T1 sequence (P04150 1-777): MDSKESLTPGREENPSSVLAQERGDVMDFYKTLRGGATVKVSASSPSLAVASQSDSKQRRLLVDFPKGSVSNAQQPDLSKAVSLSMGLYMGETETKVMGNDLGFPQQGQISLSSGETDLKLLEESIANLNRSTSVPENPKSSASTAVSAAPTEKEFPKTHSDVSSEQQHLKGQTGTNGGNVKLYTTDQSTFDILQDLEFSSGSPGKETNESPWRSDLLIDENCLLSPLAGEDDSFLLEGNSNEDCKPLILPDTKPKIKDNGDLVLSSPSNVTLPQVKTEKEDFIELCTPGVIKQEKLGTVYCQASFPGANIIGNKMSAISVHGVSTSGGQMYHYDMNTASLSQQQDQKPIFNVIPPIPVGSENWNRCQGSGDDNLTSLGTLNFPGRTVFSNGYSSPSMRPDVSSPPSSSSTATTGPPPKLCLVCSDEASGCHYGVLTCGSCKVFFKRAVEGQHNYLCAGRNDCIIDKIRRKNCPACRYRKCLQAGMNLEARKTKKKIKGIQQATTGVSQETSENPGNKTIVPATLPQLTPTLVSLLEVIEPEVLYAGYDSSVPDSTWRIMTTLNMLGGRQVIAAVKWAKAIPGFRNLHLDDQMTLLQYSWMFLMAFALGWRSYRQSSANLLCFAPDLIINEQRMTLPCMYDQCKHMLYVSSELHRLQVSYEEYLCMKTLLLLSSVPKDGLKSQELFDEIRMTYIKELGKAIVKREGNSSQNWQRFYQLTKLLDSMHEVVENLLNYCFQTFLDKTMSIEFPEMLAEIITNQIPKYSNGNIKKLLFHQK

[2] = in vivo; cited from earlier work
Naïve CD8+ T cells [3] = experiment: RNA-Seq of naïve CD8+ T cells cultured with anti CD3/28 in the presence of Dex (GC), IL-27 or GC+IL-27 (Tables 1, 2A, 2B, 5-7); format: cell-based, mouse
Method: (§1) Cell culture and treatment with glucocorticoid. CD8^+ T cells from splenocytes and lymph nodes were isolated using CD8 microbeads (Miltenyi). Cells were further stained with antibodies against CD8, CD62L and CD44, and CD8^+CD62L^hiCD44^lo naive cells were sorted by BD FacsAria (BD Biosciences). Sorted cells were cultured for 9 days as described below in DMEM supplemented with 10% (vol/vol) FCS, […], 1 mM sodium pyruvate, nonessential amino acids, L-glutamine, and 100 U/ml penicillin and 100 µg/ml streptomycin.
RNA-Seq data pre-processing. […] Heatmap figures were generated using pheatmap package^53.
Analysis of additive and non-additive effects. To test whether the glucocorticoid and IL-27 signaling pathways had additive or non-additive effects on gene expression, Applicants stimulated naïve CD8^+ T cells in the presence of Dex, IL-27, or Dex+IL-27 in vitro. Applicants tested for non-additive effects between IL-27 and glucocorticoid signaling using a negative binomial generalized linear model in order to account for both estimations of the mean and the dispersion across conditions, where dispersion describes the relationship between the mean and variance. The model was applied to the expression data using ANOVA between a model that takes into account the interaction between IL27 and Dex versus no interaction.

Naïve CD8+ T cells [4] = experiment: Quantitative RT-PCR of Prdm1, Nfil3 and Tcf7 in Ctrl, GC, IL-27 or GC+IL-27 treated cells; format: cell-based, mouse
Method: as §1
Quantitative PCR. Total RNA was extracted using RNeasy columns (Qiagen). Reverse transcription of mRNA was performed in a thermal cycler (Bio-Rad) using iScript cDNA Synthesis Kit (Bio-Rad). qPCR was performed in the Vii7 Real-Time PCR system (Applied Biosystems) using the primers for Taqman gene expression (Applied Biosystems). Data were normalized to the expression of Actb.

In the case of `C[C@]12CCC(=O)C=C1CC[C@@H]1[C@@H]2[C@@H](O)C[C@@]2(C)[C@H]1CC[C@]2(O)C(=O)CO` [Cortisol (hydrocortisone), Cortisol], the Glucocorticoid potency [1] is listed as 1.

For `C[C@]12CCC(=O)C=C1CC[C@@H]1[C@@H]2C(=O)C[C@@]2(C)[C@H]1CC[C@]2(O)C(=O)CO` [Cortisone], the Glucocorticoid potency [1] is listed as 0.8.

For `CC(=O)OCC(=O)[C@H]1CC[C@H]2[C@@H]3CCC4=CC(=O)CC[C@]4(C)[C@H]3CC[C@]12C` [Deoxycorticosterone acetate], the Glucocorticoid potency [1] is listed as 0.

In the case of `C[C@H]1C[C@@H]2[C@H]([C@@H](O)C[C@@]3(C)[C@H]2CC[C@]3(O)C(=O)CO)[C@@]2(C)C=CC(=O)C=C12` [Methylprednisolone], the “Terminal half-life” value [2] is listed as 18 to 40 h.

In the case of `C[C@]12C=CC(=O)C=C1CC[C@@H]1[C@@H]2[C@@H](O)C[C@@]2(C)[C@H]1CC[C@]2(O)C(=O)CO` [Prednisolone], the “Terminal half-life” value [2] is given as 16 to 36 h and the Glucocorticoid potency [1] is given as 4.

For `C[C@]12C=CC(=O)C=C1CC[C@@H]1[C@@H]2C(=O)C[C@@]2(C)[C@H]1CC[C@]2(O)C(=O)CO` [Prednisone], the “Terminal half-life” value [2] is given as 16 to 36 h.

In the case of `C[C@]12C=CC(=O)C=C1CC[C@H]1[C@@H]3C[C@@H](O)[C@](O)(C(=O)CO)[C@@]3(C)C[C@H](O)[C@@]12F` [Triamcinolone], the “Terminal half-life” value [2] is given as 12 to 36 h and the Glucocorticoid potency [1] is given as 5.

B1: IL-27: heterodimeric cytokine and a member of the IL-12 family of cytokines that is produced by antigen presenting cells (protein, UniProt Q8NEV9 29-243; Q14213 21-229, looked up)
Interleukin-27 subunit alpha: FPRPPGRPQLSLQELRREFTVSLHLARKLLSEVRGQAHRFAESHLPGVNLYLLPLGEQLPDVSLTFQAWRRLSDPERLCFISTTLQPFHALLGGLGTQGRWTNMERMQLWAMRLDLRDLQRHLRFQVLAAGFNLPEEEEEEEEEEEEERKGLLPGALGSALQGPAQVSWPQLLSTYRLLHSLELVLSRAVRELLLLSKAGHSVWPLGFPTLSPQP
Interleukin-27 subunit beta: RKGPPAALTLPRVQCRASRYPIAVDCSWTLPPAPNSTSPVSFIATYRLGMAARGHSWPCLQQTPTSTSCTITDVQLFSMAPYVLNVTAVHPWGSSSSFVPFITEHIIKPDPPEGVRLSPLAERQLQVQWEPPGSWPFPEIFSLKYWIRYKRQGAARFHRVGPIEATSFILRAVRPRARYYVQVAAQDLTDYGELSDWSLPATATMSLGK
With B1 the “transcriptional state of stimulated CD8+ T cells” value (Naïve CD8+ T cells [3]; FIG. 12) was “transcriptionally distinct”, the Tcf7 expression levels (Naïve CD8+ T cells [3]; three values per treatment, control cells 9.93, 8.28, 11.45) was 5.37 and 7.39 and 5.57 and the Nupr1 expression levels (Naïve CD8+ T cells [3]; three values per treatment, control cells 12.77, 13.57, 13.47) was 11.93 and 21.86 and 19.79. For the same molecule, the CD28 expression levels (Naïve CD8+ T cells [3]; three values per treatment, control cells 19.54, 18.14, 18.29) was 48.93 and 37.2 and 39.84, the Lilrb4 expression levels (Naïve CD8+ T cells [3]; three values per treatment, control cells 87.12, 92.82, 96.51) was 73.62 and 94.25 and 105.87 and the “Tcf7 expression (qPCR)” value (Naïve CD8+ T cells [4]) was “dramatically reduced”.

Source: US11957695B2, “Methods and compositions targeting glucocorticoid signaling for modulating immune responses” (The Broad Institute, Inc., priority 2018, dated 2024)
